# Assay results reported in ChEMBL document CHEMBL5154782, “Discovery of Potent PROTACs Targeting EGFR Mutants through the Optimization of Covalent EGFR Ligands” (J Med Chem, 2022).
# pIC50: −log10 of the molar value. The source made the active and inactive calls. No cut-off for these calls is given here.
# Columns and labels:
# [1] = system: von Hippel-Lindau disease tumor suppressor/Epidermal growth factor receptor (Homo sapiens), P00533+P40337 [L858R,T790M]; assay: Protac activity at VHL/EGFR L858R/T790M mutant in human NCI-H1975 cells assessed as induction of EGFR L858R/T790M ubiquitination at 30 uM in presence of NEDD8 […] inhibitor incubated for 24 hrs by Western blot analysis; assay type: cell-based
# [2] = molecular target: T1, von Hippel-Lindau disease tumor suppressor/Epidermal growth factor receptor (Homo sapiens, UniProt P00533+P40337); assay: Protac activity at VHL/EGFR wildtype in human HepG2 cells assessed as induction of EGFR degradation at 1000 nM incubated for 24 hrs by Western blot analysis; assay type: cell-based
# [3] = system: von Hippel-Lindau disease tumor suppressor/Epidermal growth factor receptor (Homo sapiens), P00533+P40337 [L858R,T790M]; assay: Protac activity at VHL/EGFR L858R/T790M mutant in human NCI-H1975 cells assessed as induction of EGFR degradation at 100 nM incubated for 24 hrs by Western blot analysis relative to control; assay type: cell-based
# NCI-H1975 [4] = assay: Inhibition of colony formation in human NCI-H1975 cells at 1 to 30 nM incubated for 10 days by crystal violet based assay; assay type: functional, cell-based; settings: dose 1-30 nM, time 10.0 day
# HCC827 [5] = assay: Inhibition of colony formation in human HCC827 cells at 1 to 30 nM incubated for 10 days by crystal violet based assay; assay type: functional, cell-based; settings: dose 1-30 nM, time 10.0 day
# BaF3 [6] = assay: Antiproliferative activity against mouse BaF3 cells expressing EGFR deletion19/T790M/C797S mutant assessed as reduction on cell growth incubated for 72 hrs by MTT assay; assay type: toxicity, cell-based; settings: BaF3, 72 h
# BaF3 [7] = assay: Antiproliferative activity against mouse BaF3 cells expressing EGFR L858R/T790M/C797S mutant assessed as reduction on cell growth incubated for 72 hrs by MTT assay; assay type: toxicity, cell-based; settings: BaF3, 72 h
# PC-9 = assay: Antiproliferative activity against human PC-9 cells expressing EGFR deletion19/T790M/C797S mutant assessed as reduction on cell growth growth incubated for 72 hrs by MTT assay; assay type: functional, cell-based; settings: PC-9, 72 h
# NCI-H1975 [8] = assay: Antiproliferative activity against human NCI-H1975 cells expressing EGFR L858R/T790M/C797S mutant assessed as reduction on cell growth incubated for 72 hrs by MTT assay; assay type: functional, cell-based; settings: NCI-H1975, 72 h
# [9] = system: Epidermal growth factor receptor (Homo sapiens), P00533 [L858R,T790M]; assay: Induction of EGRF L858R/T790M mutant degradation in human NCI-H1975 cells at 30 nM incubated for 8 hrs by western blot analysis; assay type: cell-based
# [10] = system: von Hippel-Lindau disease tumor suppressor/Epidermal growth factor receptor (Homo sapiens), P00533+P40337 [L858R,T790M]; assay: Protac activity at VHL/EGFR L858R/T790M mutant in human NCI-H1975 cells assessed as induction of EGFR degradation at 30 nM incubated for 48 hrs by Western blot analysis; assay type: cell-based
# [11] = molecular target: T2, von Hippel-Lindau disease tumor suppressor/Epidermal growth factor receptor (Homo sapiens, UniProt P00533+P40337, T790M/L858R); assay: Protac activity at VHL/EGFR L858R/T790M mutant in human NCI-H1975 cells assessed as induction of EGFR degradation incubated for 48 hrs by Western blot analysis; assay type: cell-based
# [12] = molecular target: T2, von Hippel-Lindau disease tumor suppressor/Epidermal growth factor receptor; assay: Protac activity at VHL/[…] cells assessed as induction of EGFR degradation incubated for 48 hrs by Western blot analysis; assay type: cell-based
# [13] = molecular target: T1, von Hippel-Lindau disease tumor suppressor/Epidermal growth factor receptor; assay: Protac activity at VHL/EGFR wildtype in human HCT116 cells assessed as induction of EGFR degradation at 1000 nM incubated for 24 hrs by Western blot analysis; assay type: cell-based; settings: HCT-116
# [14] = molecular target: T1, von Hippel-Lindau disease tumor suppressor/Epidermal growth factor receptor; assay: Protac activity at VHL/EGFR wildtype in human HeLa cells assessed as induction of EGFR degradation at 1000 nM incubated for 24 hrs by Western blot analysis; assay type: cell-based
# [15] = system: von Hippel-Lindau disease tumor suppressor/Epidermal growth factor receptor (Homo sapiens), P00533+P40337 [L858R,T790M]; assay: Protac activity at VHL/P-EGFR L858R/T790M mutant in human […] cells assessed as EGFR degradation at 30 nM incubated for 24 hrs followed by replacement with fresh medium without compound measured after 48 hrs by Western blot analysis; assay type: cell-based; settings: time 72.0 hrs
# [16] = system: von Hippel-Lindau disease tumor suppressor/Epidermal growth factor receptor (Homo sapiens), P00533+P40337 [L858R,T790M]; assay: Protac activity at VHL/EGFR L858R/T790M mutant in human NCI-H1975 cells assessed as decreased phosphorylated EFGR signaling at 100 nM incubated for 24 hrs by Western blot analysis; assay type: cell-based
# [17] = system: von Hippel-Lindau disease tumor suppressor/Epidermal growth factor receptor (Homo sapiens), P00533+P40337 [L858R,T790M]; assay: Protac activity at VHL/EGFR L858R/T790M mutant in human NCI-H1975 cells assessed as decreased phosphorylated ERK at 100 nM incubated for 24 hrs by Western blot analysis; assay type: cell-based
# [18] = system: von Hippel-Lindau disease tumor suppressor/Epidermal growth factor receptor (Homo sapiens), P00533+P40337 [L858R,T790M]; assay: Protac activity at VHL/EGFR L858R/T790M mutant in human NCI-H1975 cells assessed as decreased phosphorylated ATK at 100 nM incubated for 24 hrs by Western blot analysis; assay type: cell-based
# [19] = system: von Hippel-Lindau disease tumor suppressor/Epidermal growth factor receptor (Homo sapiens), P00533+P40337 [UNDEFINED MUTATION]; assay: Protac activity at VHL/EGFR deletion19 mutant in human HCC827 cells assessed as decreased phosphorylated EGFR at 3 nM incubated for 24 hrs by Western blot analysis; assay type: cell-based
# [20] = system: von Hippel-Lindau disease tumor suppressor/Epidermal growth factor receptor (Homo sapiens), P00533+P40337 [UNDEFINED MUTATION]; assay: Protac activity at VHL/EGFR deletion19 mutant in human HCC827 cells assessed as decreased phosphorylated ERK at 3 nM incubated for 24 hrs by Western blot analysis; assay type: cell-based
# [21] = system: von Hippel-Lindau disease tumor suppressor/Epidermal growth factor receptor (Homo sapiens), P00533+P40337 [UNDEFINED MUTATION]; assay: Protac activity at VHL/EGFR deletion19 mutant in human HCC827 cells assessed as decreased phosphorylated ATK at 3 nM incubated for 24 hrs by Western blot analysis; assay type: cell-based
# HCC827 [22] = assay: Antiproliferative activity against human […] assessed as inhibition of cell proliferation incubated for 72 hrs by MTT assay; assay type: functional, cell-based; settings: HCC827, 72 h
# [23] = system: von Hippel-Lindau disease tumor suppressor/Epidermal growth factor receptor (Homo sapiens), P00533+P40337 [L858R,T790M]; assay: Protac activity at VHL/EGFR L858R/T790M mutant in human NCI-H1975 cells assessed as induction of EGFR L858R/T790M ubiquitination at 30 uM in presence of lysosome chloroquine inhibitor incubated for 24 hrs by Western blot analysis; assay type: cell-based
# NCI-H1975 [24] = assay: Antiproliferative activity against human NCI-H1975 cells expressing EGFR L858R/T790M mutant assessed as inhibition of cell proliferation incubated for 72 hrs by MTT assay; assay type: functional, cell-based; settings: NCI-H1975, 72 h
# HCC827 [25] = assay: Antiproliferative activity against human HCC827 cells expressing EGFR deletion19 mutant assessed as inhibition of cell proliferation incubated for 72 hrs by MTT assay; assay type: functional, cell-based; settings: HCC827, 72 h
# A-431 = assay: Antiproliferative activity against human A-431 cells expressing EGFR wildtype assessed as inhibition of cell proliferation incubated for 72 hrs by MTT assay; assay type: functional, cell-based; settings: A-431, 72 h
# [26] = system: von Hippel-Lindau disease tumor suppressor/Epidermal growth factor receptor (Homo sapiens), P00533+P40337 [L858R,T790M]; assay: Protac activity at VHL/EGFR L858R/T790M mutant in human NCI-H1975 cells assessed as induction of EGFR degradation at 10 nM incubated for 24 hrs by Western blot analysis relative to control; assay type: cell-based
# [27] = system: von Hippel-Lindau disease tumor suppressor/Epidermal growth factor receptor (Homo sapiens), P00533+P40337 [UNDEFINED MUTATION]; assay: Protac activity at VHL/EGFR/deletion19 in human HCC827 cells assessed as induction of EGFR degradation at 3 nM incubated for 24 hrs by Western blot analysis relative to control; assay type: cell-based
# [28] = system: von Hippel-Lindau disease tumor suppressor/Epidermal growth factor receptor (Homo sapiens), P00533+P40337 [UNDEFINED MUTATION]; assay: Protac activity at VHL/EGFR/deletion19 in human HCC827 cells assessed as induction of EGFR degradation at 30 nM incubated for 24 hrs by Western blot analysis relative to control; assay type: cell-based
# [29] = system: von Hippel-Lindau disease tumor suppressor/Epidermal growth factor receptor (Homo sapiens), P00533+P40337 [L858R,T790M]; assay: Protac activity at VHL/EGFR L858R/T790M mutant in human NCI-H1975 cells assessed as maximum EGFR degradation at 100 nM incubated for 48 hrs by western blot analysis; assay type: cell-based
# [30] = system: von Hippel-Lindau disease tumor suppressor/Epidermal growth factor receptor (Homo sapiens), P00533+P40337 [UNDEFINED MUTATION]; assay: Protac activity at VHL/EGFR deletion19 mutant in human HCC827 cells assessed as maximum EGFR degradation at 100 nM incubated for 48 hrs by western blot analysis; assay type: cell-based
# [31] = system: von Hippel-Lindau disease tumor suppressor/Epidermal growth factor receptor (Homo sapiens), P00533+P40337 [UNDEFINED MUTATION]; assay: Protac activity at VHL/EGFR/deletion19 in human HCC827 cells assessed as induction of EGFR degradation at 1 to 30 nM incubated for 24 hrs by Western blot analysis; assay type: cell-based; settings: dose 1-30 nM
# NCI-H1975 [32] = assay: Antiproliferative activity against human NCI-H1975 cells expressing EGFR L858R/T790M mutant assessed as inhibition of cell proliferation; assay type: functional, cell-based
smiles,measurement,setting,value
C=CC(=O)N1CCC[C@H](n2c(Nc3ccccc3)nc3cnc(Nc4ccc(N5CCN(CCCCCCCC(=O)N[C@H](C(=O)N6C[C@H](O)C[C@H]6C(=O)N[C@@H](C)c6ccc(-c7scnc7C)cc6)C(C)(C)C)CC5)cc4)nc32)C1,Activity,[1],Active
same,Activity,[2],Active
same,Activity,[3],77%
same,inhibition,NCI-H1975 [4],Active
same,inhibition,HCC827 [5],Active
same,pIC50,BaF3 [6],6.32
same,pIC50,BaF3 [7],6.17
same,pIC50,PC-9,< 5.00
same,pIC50,NCI-H1975 [8],< 5.00
same,Activity,[9],Active
same,Activity,[10],Active
same,DC50,[11],1.56 nM
same,DC50,[12],0.49 nM
same,Activity,[13],Active
same,Activity,[14],Active
same,Activity,[15],Active
same,Activity,[16],Active
same,Activity,[17],Active
same,Activity,[18],Active
same,Activity,[19],Active
same,Activity,[20],Active
same,Activity,[21],Active
same,pIC50,HCC827 [22],8.80
same,Activity,[23],Active
same,pIC50,NCI-H1975 [24],7.49
same,pIC50,HCC827 [25],8.80
same,pIC50,A-431,< 5.00
same,Activity,[26],51%
same,Activity,[27],70%
same,Activity,[28],74%
same,Emax,[29],86%
same,Emax,[30],82%
CCC(=O)N1CCC[C@H](n2c(Nc3ccccc3)nc3cnc(Nc4ccc(N5CCN(CCCCCCCC(=O)N[C@H](C(=O)N6C[C@H](O)C[C@H]6C(=O)N[C@@H](C)c6ccc(-c7scnc7C)cc6)C(C)(C)C)CC5)cc4)nc32)C1,pIC50,NCI-H1975 [24],5.54
same,pIC50,HCC827 [25],8.27
same,Activity,[31],Active
C=CC(=O)Nc1cccc(-n2c(=O)cc(C)c3cnc(Nc4ccc(N5CCN(CCCCCC(=O)N[C@H](C(=O)N6C[C@H](O)C[C@H]6C(=O)NCc6ccc(-c7scnc7C)cc6)C(C)(C)C)CC5)cc4OC)nc32)c1,pIC50,NCI-H1975 [32],6.29
